Common to all, as to assay type: cell-based
The target in test [1] is T1, Glucocorticoid receptor (Mus musculus) (UniProt P06537).
T1 sequence (whole entry): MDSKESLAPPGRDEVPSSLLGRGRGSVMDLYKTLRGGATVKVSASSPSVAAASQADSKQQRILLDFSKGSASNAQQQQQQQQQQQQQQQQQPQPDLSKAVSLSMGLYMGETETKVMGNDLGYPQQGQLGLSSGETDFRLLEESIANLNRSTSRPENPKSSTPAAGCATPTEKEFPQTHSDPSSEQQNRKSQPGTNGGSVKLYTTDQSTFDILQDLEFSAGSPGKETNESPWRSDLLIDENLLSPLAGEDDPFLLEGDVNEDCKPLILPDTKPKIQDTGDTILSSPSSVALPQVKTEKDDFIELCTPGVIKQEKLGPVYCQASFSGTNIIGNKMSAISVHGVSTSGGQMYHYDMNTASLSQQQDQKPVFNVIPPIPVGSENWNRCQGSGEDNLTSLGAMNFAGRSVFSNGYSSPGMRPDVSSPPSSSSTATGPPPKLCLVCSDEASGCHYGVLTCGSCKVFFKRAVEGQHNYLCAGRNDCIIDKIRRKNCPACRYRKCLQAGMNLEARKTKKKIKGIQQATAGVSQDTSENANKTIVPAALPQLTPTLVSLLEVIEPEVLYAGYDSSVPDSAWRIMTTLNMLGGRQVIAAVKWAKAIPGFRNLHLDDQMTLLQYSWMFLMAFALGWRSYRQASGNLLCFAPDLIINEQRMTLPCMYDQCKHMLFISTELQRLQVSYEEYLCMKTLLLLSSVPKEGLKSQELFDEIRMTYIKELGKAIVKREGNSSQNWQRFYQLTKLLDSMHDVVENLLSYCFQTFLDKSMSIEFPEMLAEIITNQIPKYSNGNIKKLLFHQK
As to the kind of experiment: Agonist activity at GR in mouse C2C12 cells assessed as suppression of LPS-induced IL6 production by alphaLISA assay.

Test [2] has as its target T2, Glucocorticoid receptor (Homo sapiens) (UniProt P04150).
T2 sequence (whole entry): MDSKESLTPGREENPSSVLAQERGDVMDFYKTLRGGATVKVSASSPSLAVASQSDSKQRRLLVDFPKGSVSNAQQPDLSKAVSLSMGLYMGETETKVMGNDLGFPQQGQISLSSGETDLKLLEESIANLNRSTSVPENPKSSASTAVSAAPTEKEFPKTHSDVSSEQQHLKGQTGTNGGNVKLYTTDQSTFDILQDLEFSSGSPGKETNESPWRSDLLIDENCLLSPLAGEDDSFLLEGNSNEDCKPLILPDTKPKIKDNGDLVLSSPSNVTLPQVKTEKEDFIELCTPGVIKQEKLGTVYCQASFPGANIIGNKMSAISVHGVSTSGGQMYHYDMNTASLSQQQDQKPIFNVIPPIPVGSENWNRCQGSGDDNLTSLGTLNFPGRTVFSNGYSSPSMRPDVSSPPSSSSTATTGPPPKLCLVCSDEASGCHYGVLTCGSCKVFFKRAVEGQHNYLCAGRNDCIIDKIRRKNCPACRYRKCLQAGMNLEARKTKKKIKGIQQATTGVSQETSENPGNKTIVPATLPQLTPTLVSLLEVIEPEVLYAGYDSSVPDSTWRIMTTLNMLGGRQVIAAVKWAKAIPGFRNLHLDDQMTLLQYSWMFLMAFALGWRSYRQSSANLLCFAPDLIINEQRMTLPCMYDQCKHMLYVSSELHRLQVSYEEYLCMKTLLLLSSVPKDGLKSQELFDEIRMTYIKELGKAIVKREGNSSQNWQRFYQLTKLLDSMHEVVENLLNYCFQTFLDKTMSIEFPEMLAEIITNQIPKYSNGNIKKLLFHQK
Nature of the test: (§1) Agonist activity at GR in human HepG2 cells assessed as protein mediated-transcriptional activity by MMTV-promoter driven luciferase reporter gene assay. A general note: Reporter assays use an easily measured gene product as a stand-in for the process of interest.

Test [3] deals with T2, Glucocorticoid receptor (Homo sapiens). Nature of the test: (§2) Antagonist activity at GR in human HepG2 cells assessed as inhibition of protein mediated-transcriptional activity by MMTV-promoter driven luciferase reporter gene assay.
The target of test [4] is T3, Glucocorticoid receptor (Homo sapiens, UniProt P04150).
T3 sequence (P04150 whole entry): T2 sequence (whole entry)
The description is as §2.

Test [5] addresses T1, Glucocorticoid receptor (Mus musculus). Nature of the test: Antagonist activity at GR in mouse C2C12 cells assessed as increase in LPS-induced IL6 production by alphaLISA assay relative to control. Set-up: scale not given: the % may be the effect or the level left.
Test [6] deals with T3, Glucocorticoid receptor. Described as §1.
In test [7] the target is T2, Glucocorticoid receptor (Homo sapiens). Nature of the test: Antagonist activity at GR in human HepG2 cells assessed as inhibition of protein mediated-transcriptional activity at 10 uM by MMTV-promoter driven luciferase reporter gene assay.

Activity calls are given as the source filed them. The calls are words filed in the database; no cut-off is given here. Where only a bound is given, the exact number is not on record here.

Usually IC50 stands for the concentration that inhibits the measured activity by half. For the compound `CC#C[C@]1(O)CC[C@H]2[C@@H]3CCc4cc(C(=O)Nc5cccnc5C)ccc4[C@H]3[C@@H](OCc3ccc(Cl)cc3)C[C@@]21C`, in test [1], the result was Active. The Efficacy in test [2] is -0.2%; in test [3] it was 0.06%. The 50% inhibitory concentration (IC50) in test [4] amounted to 0.07 nM.

For `Cc1ncccc1NC(=O)c1ccc2c(c1)CC[C@@H]1[C@@H]2[C@@H](O)C[C@@]2(C)[C@H]1CC[C@@]2(O)C#Cc1ccccc1`, the Efficacy amounted to 2.1% in test [2] and 1.4% in test [3]. In test [4], the IC50 turned out to be 558 nM. For the same compound, the outcome in test [5] was Active.

The EC50 is the concentration at which the effect is half-maximal. For the compound `CC#C[C@]1(O)CC[C@H]2[C@@H]3CCc4cc(C(=O)Nc5cnccc5C)ccc4[C@H]3[C@@H](O)C[C@@]21C`, in test [1], the result was Active. In addition, the Efficacy in test [2] amounted to 73%; in test [3] it was 147%. Besides, the EC50 in test [6] worked out at 240 nM.

As for `Cc1ncccc1NC(=O)c1ccc2c(c1)CC[C@@H]1[C@@H]2[C@@H](O)C[C@@]2(C)[C@H]1CC[C@]2(C)O`, the Efficacy in test [2] is -0.5%; in test [3], 112%. Also, the result in test [5] was Active.

For `Cc1ncccc1NC(=O)c1ccc2c(c1)CC[C@@H]1[C@@H]2[C@@H](O)C[C@@]2(C)[C@H]1CC[C@@]2(O)C#C[Si](C)(C)C`, the Efficacy was 110% in test [2] and 90% in test [3]. The EC50 in test [6] amounted to 47 nM. Besides, in test [5], the outcome was Active.

For the compound `CC#C[C@]1(O)CC[C@H]2[C@@H]3CCc4cc(C(=O)Nc5cccnc5)ccc4[C@H]3[C@@H](O)C[C@@]21C`, the Efficacy in test [2] was 0.2%; in test [3], 10%. Moreover, in test [4], the IC50 was 455 nM. Moreover, the Activity in test [5] was 50%.

As for `CC#C[C@]1(O)CC[C@H]2[C@@H]3CCc4cc(C(=O)Nc5ncccc5C)ccc4[C@H]3[C@@H](O)C[C@@]21C`, the result in test [1] was Active. Moreover, the Efficacy is 92% in test [2] and 239% in test [3]. In addition, in test [6], the half-maximal effective concentration (EC50) worked out at 280 nM.

For `CC#C[C@]1(O)CC[C@H]2[C@@H]3CCc4cc(C(=O)Nc5cccnc5C)ccc4[C@H]3[C@@H](OCC)C[C@@]21C`, the outcome in test [1] was Active. For the same compound, the values for the Efficacy in test [2] and in test [3] were 67% and 73%, respectively. Further, in test [6], the EC50 was 0.05 nM.

As to `CC#C[C@]1(O)CC[C@H]2[C@@H]3CCc4cc(C(=O)Nc5ccncc5C)ccc4[C@H]3[C@@H](O)C[C@@]21C`, the Efficacy came to 12% in test [2] and 23% in test [3]. The EC50 in test [6] is 149 nM. In test [4], the IC50 worked out at 1360 nM. Besides, in test [5], the result was Active.

Turning to `CC#C[C@]1(O)CC[C@H]2[C@@H]3CCc4cc(C(=O)Nc5cccnc5C)ccc4C3=CC[C@@]21C`, in test [1], the outcome was Active. For the same compound, the Efficacy turned out to be 51.6% in test [2] and 30.6% in test [3]. Besides, the EC50 in test [6] turned out to be 1860 nM.

Consider `C=CCO[C@H]1C[C@@]2(C)[C@@H](CC[C@@]2(O)C#CC)[C@@H]2CCc3cc(C(=O)Nc4cccnc4C)ccc3[C@H]21`, for which the result in test [1] was Active. Moreover, the Efficacy in test [2] was 56%; in test [3], 57%. Also, the EC50 in test [6] is 0.11 nM. Besides, the IC50 in test [4] was 0.03 nM.

For the compound `CC#C[C@]1(O)CC[C@H]2[C@@H]3CCc4cc(C(=O)Nc5cccnc5C)ccc4[C@H]3[C@@H](OCc3ccccc3Cl)C[C@@]21C`, the result in test [1] was Active. The Efficacy in test [2] was found to be 0.6%; in test [3] it was 1.7%. Also, the half-maximal inhibitory concentration (IC50) in test [4] was determined as 1.4 nM.

In the case of `CC#C[C@]1(O)CC[C@H]2[C@@H]3CCc4cc(C(=O)Nc5cccnc5C)ccc4[C@H]3[C@@H](O)C[C@@]21C`, in test [1], the outcome was Active. Moreover, the figures for the Efficacy in test [2] and in test [3] were 35% and 46%, respectively. Also, the concentration for a half-maximal effect (EC50) in test [6] amounted to 265 nM. Moreover, the IC50 in test [4] amounted to 626 nM.

For `Cc1ncccc1NC(=O)c1ccc2c(c1)CC[C@@H]1[C@@H]2[C@@H](O)C[C@@]2(C)[C@H]1CC[C@@]2(O)C#CC(C)C`, the Efficacy in test [2] came out at 28%; in test [3], 39%. Also, in test [6], the EC50 was greater than 5000 nM. Further, the IC50 in test [4] turned out to be 37 nM. The outcome in test [5] was Active.

As to `CC#C[C@]1(O)CC[C@H]2[C@@H]3CCc4cc(C(=O)Nc5cccnc5C)ccc4[C@H]3[C@@H](OC)C[C@@]21C`, the result in test [1] was Active. Moreover, the figures for the Efficacy in test [2] and in test [3] were 71% and 84%, respectively. For the same compound, the EC50 in test [6] was determined as 0.04 nM.

Take `CC#C[C@]1(O)CC[C@H]2[C@@H]3CCc4cc(C(=O)Nc5cccnc5C)ccc4[C@H]3[C@@H](OCc3cccc(Cl)c3)C[C@@]21C`: the outcome in test [1] was Active. For the same compound, the Efficacy in test [2] was 0.2%; in test [3], -0.3%. The half-inhibitory concentration (IC50) in test [4] came out at 0.9 nM.

With `C#C[C@]1(O)CC[C@H]2[C@@H]3CCc4cc(C(=O)Nc5cccnc5C)ccc4[C@H]3[C@@H](O)C[C@@]21C`, the Efficacy in test [2] is 3.2%; in test [3] it was 96%. The result in test [5] was Active.

`CC#C[C@]1(O)CC[C@H]2[C@@H]3CCc4cc(C(=O)Nc5cccnc5C)ccc4[C@H]3[C@H](O)C[C@@]21C`: the result in test [1] was Active. The Efficacy in test [2] turned out to be 19.4%; in test [3], 55%.

For `CCCCC#C[C@]1(O)CC[C@H]2[C@@H]3CCc4cc(C(=O)Nc5cccnc5C)ccc4[C@H]3[C@@H](O)C[C@@]21C`, the Efficacy in test [2] worked out at 56%; in test [3], 74%. Moreover, in test [6], the concentration giving a half-maximal response (EC50) was 100 nM. In addition, the IC50 in test [4] was found to be 2350 nM. For the same compound, the result in test [5] was Active.

As to `CC#C[C@]1(O)CC[C@H]2[C@@H]3CCc4cc(C(=O)Nc5cccnc5C)ccc4[C@H]3[C@@H](OCc3ccccc3)C[C@@]21C`, the result in test [1] was Active. Moreover, the Efficacy was -0.4% in test [2] and -0.1% in test [3]. Besides, the concentration for half-maximal inhibition (IC50) in test [4] came to 0.4 nM.

Turning to `CC#C[C@]1(O)CC[C@H]2[C@@H]3CCc4cc(C(=O)Nc5cncc(C)c5)ccc4[C@H]3[C@@H](O)C[C@@]21C`, the figures for the Efficacy in test [2] and in test [7] were -0.1% and 22%, respectively. In test [5], the result was Active.

In the case of `Cc1ncccc1NC(=O)c1ccc2c(c1)CC[C@@H]1[C@@H]2[C@@H](O)C[C@]2(C)[C@@H](O)CC[C@@H]12`, the Efficacy in test [2] worked out at 0.4%; in test [3] it was 85%. For the same compound, in test [5], the result was Active.

For the compound `C=CCOC(=O)O[C@H]1C[C@@]2(C)[C@@H](CC[C@@]2(O)C#CC)[C@@H]2CCc3cc(C(=O)Nc4cccnc4C)ccc3[C@H]21`, the result in test [1] was Active. The Efficacy is 2.4% in test [2] and -0.7% in test [3]. For the same compound, the IC50 in test [4] turned out to be 84 nM.

Source of the values: ChEMBL document CHEMBL3871302, “Synthesis of novel steroidal agonists, partial agonists, and antagonists for the glucocorticoid receptor” (Bioorg Med Chem Lett, 2017).
